Source: US20150104868A1, “Methods of Maintaining and Improving Biological Cell Function and Activity” (GARGILL INCORPORATED, priority 2012, published 2015)

System: CRL 1730 HUVECs
Assay: Microarray transcriptomics of HUVEC (HGERT/HG, HG/NG)
Assay type: cell-based, human
[1] = Atherosclerosis, ATP binding and metabolism
[2] = Atherosclerosis, Cysteine/gluathione
[3] = Atherosclerosis, Cytokine activity
[4] = Atherosclerosis, Endothelial cell related
[5] = Atherosclerosis, Heat shock protein
[6] = Atherosclerosis, NF-kappaB transcription
[7] = Atherosclerosis, Nitric oxide synthase activity
[8] = Atherosclerosis, Peptidase activity
[9] = Atherosclerosis, Plasminogen activators
[10] = Atherosclerosis, Reactive oxygen species

Question: With `OC[C@@H](O)[C@@H](O)CO` [ERT, meso-1,2,3,4-tetrahydroxybutane] as the molecule, how does the “HGERT/HG ABCB10 (ATP-binding cassette, sub-family B (MDR/TAP), member 10)” value [1] read?
Answer: 0.98 Ω

Question: And the “HGERT/HG ACTL6A (Actin-like 6A)” value [1]?
Answer: 0.98 Ω

Question: What about the “HGERT/HG ACTR5 (ARP5 actin-related protein 5 homolog (yeast))” value [1] of the same molecule?
Answer: Ψ 1.01

Question: What about the “HGERT/HG ATAD1 (ATPase family, AAA domain containing 1)” value [1] of the same molecule?
Answer: 0.99 Ω

Question: What about the “HGERT/HG ATAD3B (ATPase family, AAA domain containing 3B)” value [1] of the same molecule?
Answer: Ψ 1.01

Question: And the “HGERT/HG ATP2C1 (ATPase, Ca++ transporting, type 2C, member 1)” value [1]?
Answer: 0.99 Ω

Question: What about the “HGERT/HG ATP5E (ATP synthase, H+ transporting, mitochondrial F1 complex, epsilon subunit)” value [1] of the same molecule?
Answer: 0.98 Ω

Question: And the “HGERT/HG ATP5O (ATP synthase, H+ transporting, mitochondrial Fl complex, O subunit)” value [1]?
Answer: 1.00 Ω

Question: What about the “HGERT/HG ATP13A1 (ATPase type 13A1)” value [1] of the same molecule?
Answer: Ψ 1.02

Question: And the “HGERT/HG C3orf26 (Chromosome 3 open reading frame 26)” value [1]?
Answer: 0.99 Ω

Question: What about the “HGERT/HG CARS (Cysteinyl-tRNA synthetase)” value [1] of the same molecule?
Answer: 1.00 Ω

Question: And the “HGERT/HG CSNK1G1 (Casein kinase 1, gamma 1)” value [1]?
Answer: Ψ 1.02

Question: What about the “HGERT/HG DCAKD (Dephospho-CoA kinase domain containing)” value [1] of the same molecule?
Answer: Ψ 1.03

Question: What about the “HGERT/HG DDX54 (DEAD (Asp-Glu-Ala-Asp) box, polypeptide 54)” value [1] of the same molecule?
Answer: 0.99 Ω

Question: What about the “HGERT/HG FASTKD1 (FAST kinase domains 1)” value [1] of the same molecule?
Answer: 0.99 Ω

Question: What about the “HGERT/HG FASTKD3 (FAST kinase domains 3)” value [1] of the same molecule?
Answer: 0.99 Ω

Question: And the “HGERT/HG HLTF (Helicase-like transcription factor)” value [1]?
Answer: 0.99 Ω

Question: And the “HGERT/HG HSPE1 (Heat shock 10kDa protein 1 (chaperonin 10))” value [1]?
Answer: 0.99 Ω

Question: And the “HGERT/HG KIF1B (Kinesin family member 1B)” value [1]?
Answer: Ψ 1.01

Question: What about the “HGERT/HG LIMK1 (LIM domain kinase 1)” value [1] of the same molecule?
Answer: Ψ 1.01

Question: What about the “HGERT/HG LVN (V-yes-1 Yamaguchi sarcoma viral related oncogene homolog)” value [1] of the same molecule?
Answer: Ψ 1.02

Question: What about the “HGERT/HG MAP4K3 (Mitogen-activated protein kinase kinase kinase kinase 3)” value [1] of the same molecule?
Answer: 0.98 Ω

Question: And the “HGERT/HG MARK2 (MAP/microtubule affinity-regulating kinase 2)” value [1]?
Answer: Ψ 1.03

Question: And the “HGERT/HG RP2 (Retinitis pigmentosa 2 (X-linked recessive))” value [1]?
Answer: 0.99 Ω

Question: And the “HGERT/HG RPS6KA2 (Ribosomal protein S6 kinase, 90kDa, polypeptide 2)” value [1]?
Answer: Ψ 1.01

Question: And the “HGERT/HG SLK (STE20-like kinase)” value [1]?
Answer: 0.99 Ω

Question: And the “HGERT/HG STK39 (Serine threonine kinase 39)” value [1]?
Answer: 0.98 Ω

Question: What about the “HGERT/HG SUCLA2 (Succinate-CoA ligase, ADP-forming, beta subunit)” value [1] of the same molecule?
Answer: 0.99 Ω

Question: What about the “HGERT/HG TRIT1 (TRNA isopentenyltransferase 1)” value [1] of the same molecule?
Answer: 0.98 Ω

Question: What about the “HGERT/HG VPS4B (Vacuolar protein sorting 4 homolog B (S. cerevisiae))” value [1] of the same molecule?
Answer: 0.99 Ω

Question: What about the “HGERT/HG YME1L1 (YME1-like 1 (S. cerevisiae))” value [1] of the same molecule?
Answer: 1.00 Ω

Question: And the “HGERT/HG CORO1A (Coronin, actin binding protein, 1A)” value (Atherosclerosis, Actin binding)?
Answer: 0.94 Ω

Question: What about the “HGERT/HG PLEC1 (Plectin)” value (Atherosclerosis, Actin binding) of the same molecule?
Answer: Ψ 1.03

Question: And the “HGERT/HG AHCYL1 (Adenosylhomocysteinase-like 1)” value [2]?
Answer: Ψ 1.01

Question: And the “HGERT/HG ATIC (5-aminoimidazole-4-carboxamide ribonucleotide formyltransferase/IMP cyclohydrolase)” value [2]?
Answer: 0.99 Ω

Question: And the “HGERT/HG ESD (Esterase D)” value [2]?
Answer: 0.99 Ω

Question: What about the “HGERT/HG BMP6 (Bone morphogenetic protein 6)” value [3] of the same molecule?
Answer: Ψ 1.01

Question: What about the “HGERT/HG IL13RA1 (Interleukin 13 receptor, alpha 1)” value [3] of the same molecule?
Answer: Ψ 1.02

Question: What about the “HGERT/HG IL17D (Interleukin 17D)” value [3] of the same molecule?
Answer: 0.98 Ω

Question: And the “HGERT/HG ENG (Endoglin)” value [4]?
Answer: Ψ 1.01

Question: And the “HGERT/HG FOXC1 (Forkhead box C1)” value [4]?
Answer: Ψ 1.01

Question: What about the “HGERT/HG GPR124 (G protein-coupled receptor 124)” value [4] of the same molecule?
Answer: Ψ 1.02

Question: What about the “HGERT/HG HIG2 (Chromosome 7 open reading frame 68)” value [4] of the same molecule?
Answer: Ψ 1.01

Question: And the “HGERT/HG JUP (Junction plakoglobin)” value [4]?
Answer: Ψ 1.01

Question: And the “HGERT/HG KRIT1 (KRIT1, ankyrin repeat containing)” value [4]?
Answer: 0.99 Ω

Question: What about the “HGERT/HG NOTCH1 (Notch 1)” value [4] of the same molecule?
Answer: Ψ 1.02

Question: And the “HGERT/HG JUP (Junction plakoglobin)” value (Atherosclerosis, Endothelial cell-cell adhesion)?
Answer: Ψ 1.01

Question: What about the “HGERT/HG DNAJC8 (DnaJ (Hsp40) homolog, subfamily C, member 8)” value [5] of the same molecule?
Answer: 0.99 Ω

Question: What about the “HGERT/HG DNAJC11 (DnaJ (Hsp40) homolog, subfamily C, member 11)” value [5] of the same molecule?
Answer: Ψ 1.01

Question: And the “HGERT/HG COMMD7 (COMM domain containing 7)” value [6]?
Answer: 0.99 Ω

Question: What about the “HGERT/HG NDFIP2 (Nedd4 family interacting protein 2)” value [6] of the same molecule?
Answer: 0.99 Ω

Question: And the “HGERT/HG PTPLAD1 (Protein tyrosine phosphatase-like A domain containing 1)” value [6]?
Answer: Ψ 1.01

Question: What about the “HGERT/HG TP53BP2 (Tumor protein p53 binding protein, 2)” value [6] of the same molecule?
Answer: Ψ 1.01

Question: What about the “HGERT/HG ACVR2A (Activin A receptor, type IIA)” value [7] of the same molecule?
Answer: 0.99 Ω

Question: What about the “HGERT/HG ENG (Endoglin)” value [7] of the same molecule?
Answer: Ψ 1.01

Question: What about the “HGERT/HG HIG2 (Chromosome 7 open reading frame 68)” value [7] of the same molecule?
Answer: Ψ 1.01

Question: What about the “HGERT/HG OSTM1 (Osteopetrosis associated transmembrane protein 1)” value (Atherosclerosis, Osteoclast differentiation) of the same molecule?
Answer: 0.99 Ω

Question: What about the “HGERT/HG ATXN3 (Ataxin 3)” value [8] of the same molecule?
Answer: 0.99 Ω

Question: What about the “HGERT/HG OTUD5 (OTU domain containing 5)” value [8] of the same molecule?
Answer: Ψ 1.01

Question: What about the “HGERT/HG SENP3 (SUMO1/sentrin/SMT3 specific peptidase 3)” value [8] of the same molecule?
Answer: Ψ 1.01

Question: And the “HGERT/HG WFDC12 (WAP four-disulfide core domain 12)” value [8]?
Answer: 0.96 Ω

Question: And the “HGERT/HG PLSCR4 (Phospholipid scramblase 4)” value (Atherosclerosis, Phospholipid scramblase)?
Answer: 0.99 Ω

Question: What about the “HGERT/HG BRD2 (Bromodomain containing 2)” value [9] of the same molecule?
Answer: Ψ 1.02

Question: And the “HGERT/HG RHOJ (Ras homolog gene family, member J)” value [9]?
Answer: Ψ 1.02

Question: And the “HGERT/HG COX8A (Cytochrome c oxidase subunit VIIIA (ubiquitous))” value [10]?
Answer: 0.99 Ω

Question: And the “HGERT/HG JUP (Junction plakoglobin)” value [10]?
Answer: Ψ 1.01

Question: What about the “HGERT/HG MPHOSPH6 (M-phase phosphoprotein 6)” value [10] of the same molecule?
Answer: 0.99 Ω

Question: And the “HGERT/HG SDHD (Succinate dehydrogenase complex, subunit D, integral membrane protein)” value [10]?
Answer: 0.98 Ω

Question: And the “HGERT/HG SMOX (Spermine oxidase)” value [10]?
Answer: 0.99 Ω

Question: What about the “HGERT/HG SOS1 (Son of sevenless homolog 1 (Drosophila))” value [10] of the same molecule?
Answer: Ψ 1.06

Question: And the “HGERT/HG TCF12 (Transcription factor 12)” value [10]?
Answer: 0.99 Ω

Question: And the “HGERT/HG TGM2 (Transglutaminase 2 (C polypeptide, protein-glutamine-gamma-glutamyltransferase))” value [10]?
Answer: Ψ 1.01

Question: And the “HGERT/HG PGRMC2 (Progesterone receptor membrane component 2)” value (Atherosclerosis, Steroid hormone receptor activity)?
Answer: 0.98 Ω

Question: And the “HGERT/HG ABCB10 (ATP-binding cassette, sub-family B (MDR/TAP), member 10)” value (Breast cancer, ATP metabolism)?
Answer: 0.98 Ω

Question: What about the “HGERT/HG ACTL6A (Actin like 6A)” value (Breast cancer, ATP metabolism) of the same molecule?
Answer: 0.98 Ω

Question: And the “HGERT/HG ACTR5 (ARP5 actin-related protein 5 homolog (yeast))” value (Breast cancer, ATP metabolism)?
Answer: Ψ 1.01

Question: And the “HGERT/HG ATAD1 (ATPase family, AAA domain containing 1)” value (Breast cancer, ATP metabolism)?
Answer: 0.99 Ω

Question: And the “HGERT/HG ATAD38 (ATPase family, AAA domain containing 38)” value (Breast cancer, ATP metabolism)?
Answer: Ψ 1.01

Question: What about the “HGERT/HG ATP2C1 (ATPase, Ca++ transporting, type 2C, member 1)” value (Breast cancer, ATP metabolism) of the same molecule?
Answer: 0.99 Ω

Question: What about the “HGERT/HG ATP5E (ATP synthase, H+ transporting, mitochondrial F1 complex, epsilon subunit)” value (Breast cancer, ATP metabolism) of the same molecule?
Answer: 0.99 Ω

Question: And the “HGERT/HG ATP5O (ATP synthase, H+ transporting, mitochondrial F1 complex, O subunite)” value (Breast cancer, ATP metabolism)?
Answer: Ψ 1.00

Question: And the “HGERT/HG ATP13A1 (ATPase type 13A1)” value (Breast cancer, ATP metabolism)?
Answer: Ψ 1.02

Question: What about the “HGERT/HG C3orf26 (Chromosome 3 open reading frame 26)” value (Breast cancer, ATP metabolism) of the same molecule?
Answer: 0.99 Ω

Question: What about the “HGERT/HG CARS (Cysteinyl-tRNA synthetase)” value (Breast cancer, ATP metabolism) of the same molecule?
Answer: 1.00 Ω

Question: What about the “HGERT/HG CSNK1G1 (Casein kinase 1, gamma 1)” value (Breast cancer, ATP metabolism) of the same molecule?
Answer: Ψ 1.02

Question: And the “HGERT/HG DCAKO (Dephospho-CoA kinase domain containing)” value (Breast cancer, ATP metabolism)?
Answer: Ψ 1.03

Question: What about the “HGERT/HG DDX54 (DEAD (Asp-Glu-Ala-Asp) box, polypeptide 54)” value (Breast cancer, ATP metabolism) of the same molecule?
Answer: 0.99 Ω

Question: And the “HGERT/HG FASTDK1 (FAST kinase domains 1)” value (Breast cancer, ATP metabolism)?
Answer: 0.99 Ω

Question: And the “HGERT/HG FASTKD3 (FAST kinase domains 1)” value (Breast cancer, ATP metabolism)?
Answer: 0.99 Ω

Question: What about the “HGERT/HG HLTF (Helicase-like transcription factor)” value (Breast cancer, ATP metabolism) of the same molecule?
Answer: 0.99 Ω

Question: What about the “HGERT/HG HSPE1 (Heat shock 10kDa protein 1 (chaperonin 10))” value (Breast cancer, ATP metabolism) of the same molecule?
Answer: 0.99 Ω

Question: What about the “HGERT/HG KF1B (Kinesin family member 1B)” value (Breast cancer, ATP metabolism) of the same molecule?
Answer: Ψ 1.01

Question: And the “HGERT/HG LIMK1 (LIM domain kinase 1)” value (Breast cancer, ATP metabolism)?
Answer: Ψ 1.01

Question: What about the “HGERT/HG LYN (V-yes-1 Yamaguchi sarcoma viral related oncogene homolog)” value (Breast cancer, ATP metabolism) of the same molecule?
Answer: Ψ 1.02

Question: And the “HGERT/HG MAP4K3 (Mitogen-activated protein kinase kinase kinase kinase 3)” value (Breast cancer, ATP metabolism)?
Answer: 0.98 Ω

Question: What about the “HGERT/HG RP2 (Retinitis pigmentosa 2 (X-linked recessive))” value (Breast cancer, ATP metabolism) of the same molecule?
Answer: 0.98 Ω

Question: What about the “HGERT/HG SLK (STE20-like kinase)” value (Breast cancer, ATP metabolism) of the same molecule?
Answer: 0.99 Ω

Question: And the “HGERT/HG STK39 (Serine threonine kinase 39)” value (Breast cancer, ATP metabolism)?
Answer: 0.98 Ω

Question: And the “HGERT/HG SUCLA2 (Succinate-CoA ligase, ADP-forming, beta subunit)” value (Breast cancer, ATP metabolism)?
Answer: 0.99 Ω
